Patent US9809623B2, “α4β7 peptide monomer and dimer antagonists” (Protagonist Therapeutics, Inc., priority 2014, dated 2017)
pIC50: −log10 of the molar value. Like-named read-outs stand apart in the source and are kept apart here. Numbered stars: 1 amine (or outer) side, 2 acyl side, 3 side chain; on linkers, the order of the positions; unused ones are H or OH. Bridge positions count the residues as written; N and C are the ends. Square brackets hold non-standard residues; d marks the D form. Peptide text beside a SMILES is read from it. I, II: the chains in the order shown. ξ: configuration not given here. Phe(4-tBu) = CC(C)(C)c1ccc(C[C@H](N)C(=O)O)cc1; Diglycolyl = O=C(COCC(=O)[*:2])[*:1]; NMeR = CN[C@@H](CCCNC(=N)N)C(=O)O; β3hE = N[C@@H](CCC(=O)O)CC(=O)O; Thr(3ξ) = CC(O)[C@H](N)C(=O)O; Pen = CC(C)(S)[C@H](N)C(=O)O; dNMeK = CN[C@H](CCCCN)C(=O)O

Legend:
α4β7 [1] = target: α4β7 (Homo sapiens, UniProt P13612+P26010); test: PBMC Memory T Cell Adhesion Assay, adhesion to MAdCAM-1; format: cell-based
Method in brief: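 Fresh human CD4+/CD45RO+ memory T cells in binding medium with 1 mM MnCl2 were preincubated with compound for 1.5 h at 37° C. on plates coated with Fc-captured MAdCAM-1 (400 ng/well). Adherent cells were read by fluorescence (Ex 485/Em 530). IC50 came from four-parameter nonlinear regression of RFU versus log concentration.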

α4β7 [2] = target: T1, α4β7 (Mus musculus, UniProt P26011+Q00651); test: α4β7 Cell Adhesion Assay (Mouse), TK1 cells; format: cell-based
T1 construct: host or cells: TK1 mouse T cells
Method in brief: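 Mouse TK1 cells in DMEM with 0.1% BSA, 10 mM HEPES pH 7 and 1 mM MnCl2 were allowed to adhere for 30-45 min at 37 °C to plates coated with recombinant human MAdCAM-1 Fc (200 ng/well) in the presence of serially diluted peptides. Adherent cells were quantified by MTT absorbance at 570 nm, with no-cell background subtracted for dose response.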

[3] = Table 4-B, read-out: Cell Adhesion PBMC IC50
[4] = Table 4-B, read-out: Cell Adhesion α4β7 Mouse IC50
[5] = Table 3-B, range classes, read-out: PBMC IC50
[6] = Table 3-B, Potency (α4β7), range classes, read-out: α4β7 cell(MU) IC50

α4β7 (Homo sapiens, UniProt P13612+P26010), sequence (P13612 34-1032): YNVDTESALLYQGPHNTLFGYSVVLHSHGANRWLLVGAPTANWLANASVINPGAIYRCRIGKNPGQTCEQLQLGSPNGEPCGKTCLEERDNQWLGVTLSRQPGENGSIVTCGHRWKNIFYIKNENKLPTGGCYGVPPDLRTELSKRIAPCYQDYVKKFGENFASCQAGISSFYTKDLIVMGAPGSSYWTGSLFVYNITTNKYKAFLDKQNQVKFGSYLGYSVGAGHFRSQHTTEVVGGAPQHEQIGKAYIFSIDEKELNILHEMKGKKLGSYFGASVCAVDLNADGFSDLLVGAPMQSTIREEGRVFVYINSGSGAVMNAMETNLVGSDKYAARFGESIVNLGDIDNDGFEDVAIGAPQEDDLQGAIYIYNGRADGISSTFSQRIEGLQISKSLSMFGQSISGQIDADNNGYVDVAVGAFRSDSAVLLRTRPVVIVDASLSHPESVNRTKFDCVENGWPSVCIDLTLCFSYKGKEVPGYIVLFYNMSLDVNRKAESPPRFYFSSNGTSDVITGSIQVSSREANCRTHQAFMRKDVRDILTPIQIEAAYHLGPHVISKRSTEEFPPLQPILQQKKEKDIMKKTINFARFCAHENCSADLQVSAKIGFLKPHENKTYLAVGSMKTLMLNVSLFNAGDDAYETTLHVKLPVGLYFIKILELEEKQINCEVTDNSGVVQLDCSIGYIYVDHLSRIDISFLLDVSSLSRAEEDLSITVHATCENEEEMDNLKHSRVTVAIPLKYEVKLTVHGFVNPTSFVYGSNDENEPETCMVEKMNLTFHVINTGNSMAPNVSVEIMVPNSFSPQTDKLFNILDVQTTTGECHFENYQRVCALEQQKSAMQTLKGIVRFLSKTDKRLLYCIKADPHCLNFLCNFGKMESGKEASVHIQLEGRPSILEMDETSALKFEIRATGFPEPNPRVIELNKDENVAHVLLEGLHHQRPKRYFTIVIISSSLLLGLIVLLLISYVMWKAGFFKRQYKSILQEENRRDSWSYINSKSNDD
α4β7 (Homo sapiens, UniProt P13612+P26010), sequence (P26010 20-798): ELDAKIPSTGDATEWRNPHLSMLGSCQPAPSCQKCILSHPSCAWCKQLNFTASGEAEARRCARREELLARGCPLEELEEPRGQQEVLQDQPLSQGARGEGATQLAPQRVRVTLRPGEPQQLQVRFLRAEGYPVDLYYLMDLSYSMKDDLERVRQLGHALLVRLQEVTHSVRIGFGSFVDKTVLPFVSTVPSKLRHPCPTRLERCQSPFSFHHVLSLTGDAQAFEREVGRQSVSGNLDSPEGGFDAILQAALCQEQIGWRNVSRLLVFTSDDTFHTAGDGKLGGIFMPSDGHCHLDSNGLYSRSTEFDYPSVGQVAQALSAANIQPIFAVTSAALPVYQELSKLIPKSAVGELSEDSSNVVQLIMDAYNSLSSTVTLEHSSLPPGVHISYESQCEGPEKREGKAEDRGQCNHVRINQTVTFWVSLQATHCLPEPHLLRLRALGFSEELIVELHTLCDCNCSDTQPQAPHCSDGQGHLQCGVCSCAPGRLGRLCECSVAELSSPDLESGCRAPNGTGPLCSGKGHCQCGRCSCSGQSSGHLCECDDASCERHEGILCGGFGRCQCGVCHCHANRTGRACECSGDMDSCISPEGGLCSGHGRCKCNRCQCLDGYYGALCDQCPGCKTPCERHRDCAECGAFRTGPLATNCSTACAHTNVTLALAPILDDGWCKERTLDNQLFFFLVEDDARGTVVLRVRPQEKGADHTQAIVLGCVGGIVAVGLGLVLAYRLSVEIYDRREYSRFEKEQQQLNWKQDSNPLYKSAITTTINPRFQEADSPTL
T1 sequence (Q00651 34-1039 limits assumed): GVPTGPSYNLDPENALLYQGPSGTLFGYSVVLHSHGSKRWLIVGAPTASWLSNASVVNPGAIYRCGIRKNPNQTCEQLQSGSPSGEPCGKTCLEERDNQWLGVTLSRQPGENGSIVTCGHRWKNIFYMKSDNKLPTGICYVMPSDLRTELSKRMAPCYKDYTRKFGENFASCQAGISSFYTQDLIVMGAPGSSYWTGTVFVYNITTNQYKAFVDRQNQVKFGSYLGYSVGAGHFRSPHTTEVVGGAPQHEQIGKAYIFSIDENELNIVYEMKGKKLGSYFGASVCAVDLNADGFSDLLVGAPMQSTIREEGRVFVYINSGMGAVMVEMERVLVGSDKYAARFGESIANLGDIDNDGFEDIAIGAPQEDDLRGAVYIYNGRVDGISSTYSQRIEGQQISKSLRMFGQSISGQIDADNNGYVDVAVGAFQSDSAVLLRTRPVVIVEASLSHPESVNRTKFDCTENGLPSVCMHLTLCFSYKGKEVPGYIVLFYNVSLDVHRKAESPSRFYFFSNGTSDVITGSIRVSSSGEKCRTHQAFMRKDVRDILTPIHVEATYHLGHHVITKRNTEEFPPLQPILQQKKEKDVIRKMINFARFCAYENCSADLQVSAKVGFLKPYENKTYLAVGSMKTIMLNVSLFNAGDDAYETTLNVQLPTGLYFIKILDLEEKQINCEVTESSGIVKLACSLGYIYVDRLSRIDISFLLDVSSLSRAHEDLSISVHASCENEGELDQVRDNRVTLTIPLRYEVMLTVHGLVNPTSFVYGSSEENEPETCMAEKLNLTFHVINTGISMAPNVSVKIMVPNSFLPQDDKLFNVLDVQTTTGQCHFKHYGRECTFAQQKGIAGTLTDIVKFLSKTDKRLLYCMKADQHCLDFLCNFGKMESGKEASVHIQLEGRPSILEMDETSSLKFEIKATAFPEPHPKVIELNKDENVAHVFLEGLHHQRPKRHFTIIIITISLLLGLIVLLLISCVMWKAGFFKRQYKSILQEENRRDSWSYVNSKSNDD
T1 sequence (P26011 20-806): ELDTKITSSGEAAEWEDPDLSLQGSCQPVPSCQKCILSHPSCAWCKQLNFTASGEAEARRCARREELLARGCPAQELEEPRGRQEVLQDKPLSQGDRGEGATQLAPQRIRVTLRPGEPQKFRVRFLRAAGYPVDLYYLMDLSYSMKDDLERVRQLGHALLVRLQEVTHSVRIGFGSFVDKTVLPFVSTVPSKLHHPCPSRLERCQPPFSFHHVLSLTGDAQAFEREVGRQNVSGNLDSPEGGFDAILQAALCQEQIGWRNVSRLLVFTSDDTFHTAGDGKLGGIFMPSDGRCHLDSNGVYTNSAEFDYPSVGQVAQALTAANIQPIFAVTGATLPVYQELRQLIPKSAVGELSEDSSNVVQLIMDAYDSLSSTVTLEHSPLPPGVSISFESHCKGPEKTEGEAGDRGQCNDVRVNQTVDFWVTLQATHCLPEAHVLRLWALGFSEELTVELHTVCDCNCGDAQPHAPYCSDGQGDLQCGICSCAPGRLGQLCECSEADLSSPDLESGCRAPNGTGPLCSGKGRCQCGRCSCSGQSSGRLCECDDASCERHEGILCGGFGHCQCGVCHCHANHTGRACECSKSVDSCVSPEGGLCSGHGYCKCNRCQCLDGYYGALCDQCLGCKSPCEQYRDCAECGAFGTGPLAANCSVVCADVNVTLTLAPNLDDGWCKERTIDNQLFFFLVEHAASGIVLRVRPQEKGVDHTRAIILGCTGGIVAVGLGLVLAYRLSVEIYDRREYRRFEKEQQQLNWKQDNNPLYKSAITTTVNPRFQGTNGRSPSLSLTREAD

Row | SMILES | pIC50 (α4β7 [1]; [3]) | pIC50 (α4β7 [2]; [4]) | pIC50 (α4β7 [1]; [5]) | pIC50 (α4β7 [2]; [6]) | further results
1 | CC(=O)N[C@@H]1C(=O)N(C)[C@@H](CCCNC(=N)N)C(=O)N[C@@H](CO)C(=O)N[C@@H](CC(=O)O)C(=O)N[C@@H]([C@@H](C)O)C(=O)N[C@@H](CC(C)C)C(=O)N[C@H](C(=O)N[C@@H](Cc2c[nH]c3ccccc23)C(=O)N[C@H](CCC(=O)O)C(=O)N[C@H](CCCCNC(=O)COCC(=O)NCCCC[C@@H](NC(=O)[C@@H](CCC(=O)O)NC(=O)[C@H](Cc2c[nH]c3ccccc23)NC(=O)[C@H]2NC(=O)[C@H](CC(C)C)NC(=O)[C@H]([C@@H](C)O)NC(=O)[C@H](CC(=O)O)NC(=O)[C@H](CO)NC(=O)[C@H](CCCNC(=N)N)N(C)C(=O)[C@@H](NC(C)=O)C(C)(C)SSC2(C)C)C(=O)O)C(=O)O)C(C)(C)SSC1(C)C [compound 216, (Ac-Pen-N-Me-R-S-D-T-L-Pen-W-e-k-OH)2-DIG] (I: Ac-[Pen][NMeR]SDTL[Pen]W[dE][dK]-OH / II: Ac-[Pen][NMeR]SDTL[Pen]W[dE][dK]-OH; disulfide I:1-I:7, II:1-II:7 (inferred); linker I:10-II:10 via Diglycolyl (inferred)) | 7.84 | 9.00 | – | – | –
2 | CC(=O)N[C@@H]1C(=O)N(C)[C@@H](CCCNC(=N)N)C(=O)N[C@@H](CO)C(=O)N[C@@H](CC(=O)O)C(=O)N[C@@H]([C@@H](C)O)C(=O)N[C@@H](CC(C)C)C(=O)N[C@H](C(=O)N[C@@H](Cc2ccc(C(C)(C)C)cc2)C(=O)N[C@@H](CCC(=O)O)CC(=O)O)C(C)(C)SSC1(C)C [compound 152] (Ac-[Pen][NMeR]SDTL[Pen][Phe(4-tBu)][β3hE]-OH; disulfide 1-7) | – | – | 7.30 to 7.60 | > 8.00 | –
3 | CC(=O)N[C@@H]1C(=O)N(C)[C@@H](CCCNC(=N)N)C(=O)N[C@@H](CO)C(=O)N[C@@H](CC(=O)O)C(=O)N[C@@H]([C@@H](C)O)C(=O)N[C@@H](CC(C)C)C(=O)N[C@H](C(=O)N[C@@H](Cc2c[nH]c3ccccc23)C(=O)N[C@H](CCC(=O)O)C(=O)N[C@H](CCCCNC(=O)COCC(=O)NCCCC[C@@H](NC(=O)[C@@H](CCC(=O)O)NC(=O)[C@H](Cc2c[nH]c3ccccc23)NC(=O)[C@H]2NC(=O)[C@H](CC(C)C)NC(=O)[C@H]([C@@H](C)O)NC(=O)[C@H](CC(=O)O)NC(=O)[C@H](CO)NC(=O)[C@H](CCCNC(=N)N)N(C)C(=O)[C@@H](NC(C)=O)C(C)(C)SSC2(C)C)C(N)=O)C(N)=O)C(C)(C)SSC1(C)C [compound 68] (I: Ac-[Pen][NMeR]SDTL[Pen]W[dE][dK]-NH2 / II: Ac-[Pen][NMeR]SDTL[Pen]W[dE][dK]-NH2; disulfide I:1-I:7, II:1-II:7; linker I:10-II:10 via Diglycolyl) | – | – | 6.30 to 7.00 | > 8.00 | –
4 | CC(=O)N[C@@H]1C(=O)N(C)[C@@H](CCCNC(=N)N)C(=O)N[C@@H](CO)C(=O)N[C@@H](CC(=O)O)C(=O)N[C@@H](C(C)O)C(=O)N[C@@H](CC(C)C)C(=O)N[C@H](C(=O)N[C@@H](Cc2ccc(C(C)(C)C)cc2)C(=O)N[C@@H](CCC(=O)O)CC(=O)N[C@H](CCCCNC(=O)COCC(=O)NCCCC[C@@H](NC(=O)C[C@H](CCC(=O)O)NC(=O)[C@H](Cc2ccc(C(C)(C)C)cc2)NC(=O)[C@H]2NC(=O)[C@H](CC(C)C)NC(=O)[C@H](C(C)O)NC(=O)[C@H](CC(=O)O)NC(=O)[C@H](CO)NC(=O)[C@H](CCCNC(=N)N)N(C)C(=O)[C@@H](NC(C)=O)C(C)(C)SSC2(C)C)C(N)=O)C(N)=O)C(C)(C)SSC1(C)C (stereo partly drawn) [Peptide X, [Ac-Pen-(N-Me-Arg)-Ser-Asp-Thr-Leu-Pen-(Phe(4-tBu))-(β-homoGlu)-(D-Lys)]2-DIG] (I: Ac-[Pen][NMeR]SD[Thr(3ξ)]L[Pen][Phe(4-tBu)][β3hE][dK]-NH2 / II: Ac-[Pen][NMeR]SD[Thr(3ξ)]L[Pen][Phe(4-tBu)][β3hE][dK]-NH2; disulfide I:1-I:7, II:1-II:7; linker I:10-II:10 via Diglycolyl) | – | – | – | – | IC50 (α4β7 [1]; average, cells isolated from 4 different human PBMC donors, read-out: IC50 (nM), memory T cells, Integrin α4β7, Ligand MAdCAM-1): 1.3 nM; pIC50 (α4β7 [1]; read-out: IC50 for α4β7 T cells): 9.00; pIC50 (α4β7 [2]; mouse T cell TK1, read-out: IC50 for blocking adhesion of TK1 cell line to MAdCAM-1): 9.30
5 | CC(=O)N[C@@H]1C(=O)N(C)[C@@H](CCCNC(=N)N)C(=O)N[C@@H](CO)C(=O)N[C@@H](CC(=O)O)C(=O)N[C@@H]([C@@H](C)O)C(=O)N[C@@H](CC(C)C)C(=O)N[C@H](C(=O)N[C@@H](Cc2c[nH]c3ccccc23)C(=O)N[C@@H](CCC(=O)O)C(=O)N(C)[C@H](CCCCNC(=O)COCC(=O)NCCCC[C@H](C(N)=O)N(C)C(=O)[C@H](CCC(=O)O)NC(=O)[C@H](Cc2c[nH]c3ccccc23)NC(=O)[C@H]2NC(=O)[C@H](CC(C)C)NC(=O)[C@H]([C@@H](C)O)NC(=O)[C@H](CC(=O)O)NC(=O)[C@H](CO)NC(=O)[C@H](CCCNC(=N)N)N(C)C(=O)[C@@H](NC(C)=O)C(C)(C)SSC2(C)C)C(N)=O)C(C)(C)SSC1(C)C [compound 214, [Ac-Pen-(N-Me-Arg)-Ser-Asp-Thr-Leu-Pen-Trp-Glu-(N-Me-D-Lys)-NH2]2-DIG] (I: Ac-[Pen][NMeR]SDTL[Pen]WE[dNMeK]-NH2 / II: Ac-[Pen][NMeR]SDTL[Pen]WE[dNMeK]-NH2; disulfide I:1-I:7, II:1-II:7 (inferred); linker I:10-II:10 via Diglycolyl (inferred)) | 7.61 | 8.96 | – | – | –
